# Experimental data taken from the supplement of paper PMC10307832.
# Legend:
# Assay in all cases: relative viability (nuclei count vs DMSO), 5 days (fraction); higher = more cells survive
# YM155 + Lapatinib = compound: COCC[n+]1c2c(n(Cc3cnccn3)c1C)C(=O)c1ccccc1C2=O [YM155] + CS(=O)(=O)CCNCc1ccc(-c2ccc3ncnc(Nc4ccc(OCc5cccc(F)c5)c(Cl)c4)c3c2)o1 [Lapatinib] (partner 2 µM)
# Procedure, shortened: (§1)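 After 5 days of treatment, lung cancer cells in 1536-well plates were fixed and stained in a single step (final 0.05% Triton X-100, 1% formaldehyde, 1 ug/ml Hoechst) and their nuclei counted on 4× images. Treatment had been applied by pin tool the day after seeding as one drug alone or as a fixed anchor-drug dose with five library-drug doses (not always all listed) in √10 steps. Relative viability is the nuclei count of treated wells divided by that of vehicle wells, and values are medians of duplicate plates.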
# YM155 + Bortezomib = compound: COCC[n+]1c2c(n(Cc3cnccn3)c1C)C(=O)c1ccccc1C2=O [YM155] + CC(C)C[C@H](NC(=O)[C@H](Cc1ccccc1)NC(=O)c1cnccn1)B(O)O [Bortezomib] (partner 0.002 µM)
# Procedure, shortened: as §1
# Quizartinib + Tozasertib = compound: CC(C)(C)c1cc(NC(=O)Nc2ccc(-c3cn4c(n3)sc3cc(OCCN5CCOCC5)ccc34)cc2)no1 [Quizartinib] + Cc1cc(Nc2cc(N3CCN(C)CC3)nc(Sc3ccc(NC(=O)C4CC4)cc3)n2)n[nH]1 [Tozasertib] (partner 0.1 µM)
# Procedure, shortened: as §1
# Quizartinib + Phenformin = compound: CC(C)(C)c1cc(NC(=O)Nc2ccc(-c3cn4c(n3)sc3cc(OCCN5CCOCC5)ccc34)cc2)no1 [Quizartinib] + N=C(N)NC(=N)NCCc1ccccc1 [Phenformin] (partner 250 µM)
# Procedure, shortened: as §1
Cell Line,relative viability (YM155 + Lapatinib; first compound 0.002 µM),relative viability (YM155 + Lapatinib; first compound 0.006325 µM),relative viability (YM155 + Lapatinib; first compound 0.02 µM),relative viability (YM155 + Lapatinib; first compound 0.06325 µM),relative viability (YM155 + Bortezomib; first compound 0.002 µM),relative viability (YM155 + Bortezomib; first compound 0.006325 µM),relative viability (YM155 + Bortezomib; first compound 0.02 µM),relative viability (YM155 + Bortezomib; first compound 0.06325 µM),relative viability (Quizartinib + Tozasertib; first compound 0.001 µM),relative viability (Quizartinib + Tozasertib; first compound 0.003162 µM),relative viability (Quizartinib + Tozasertib; first compound 0.01 µM),relative viability (Quizartinib + Tozasertib; first compound 0.03162 µM),relative viability (Quizartinib + Tozasertib; first compound 0.1 µM),relative viability (Quizartinib + Phenformin; first compound 0.001 µM),relative viability (Quizartinib + Phenformin; first compound 0.003162 µM),relative viability (Quizartinib + Phenformin; first compound 0.01 µM),relative viability (Quizartinib + Phenformin; first compound 0.03162 µM),relative viability (Quizartinib + Phenformin; first compound 0.1 µM)
NCI-H1703,1.11,0.982,0.452,0.179,0.283,0.323,0.322,0.198,,,,,,,,,,
Calu-6,1.04,0.992,0.271,0.143,0.966,0.84,0.298,0.188,,,,,,,,,,
NCI-H2342,,,,,,,,,0.625,0.582,0.575,0.498,0.457,0.595,0.629,0.539,0.616,0.688
NCI-H1944,0.842,0.724,0.767,0.82,,,,,0.291,0.264,0.267,0.263,0.278,0.206,0.209,0.182,0.192,0.173
NCI-H522,,,,,,,,,0.571,0.585,0.585,0.559,0.569,0.591,0.652,0.645,0.622,0.542
NCI-H1792,0.95,0.92,0.943,0.895,0.816,0.97,0.943,1,,,,,,0.259,0.2,0.244,0.346,0.243
NCI-H1563,0.924,0.994,0.986,1.05,0.974,0.926,0.907,0.989,,,,,,0.648,0.708,0.656,0.514,0.533
LK-2,0.893,0.966,0.94,0.885,,,,,0.133,,0.145,0.17,0.142,0.243,,0.47,0.138,0.108
NCI-H2170,0.261,0.261,0.291,0.235,,,,,0.665,0.654,0.853,0.749,0.804,0.415,0.432,0.403,0.436,0.378
NCI-H358,0.326,0.447,0.344,0.199,,,,,0.0852,0.0998,0.115,0.102,0.0995,0.292,0.4,0.327,0.115,0.299
A549,0.93,0.872,0.598,0.0781,,,,,,,,,,0.166,0.155,0.201,0.117,0.162
NCI-H1623,,,,,,,,,0.392,0.469,0.449,0.441,0.511,0.455,0.645,0.599,0.595,0.634
